This is an account of results in patent US5834415A, “Naphthalene boronic acids” (Novo Nordisk A/S, priority 1994, dated 1998).

What is called Ki is the dissociation constant of the complex between target and ligand, obtained from inhibition or displacement.

Like-named read-outs stand apart in the source and are kept apart here.

One assay has as its target T1, Alcalase (Bacillus licheniformis, UniProt P00780).
T1 construct: purchased Novo Nordisk A/S
T1 sequence (P00780 106-379): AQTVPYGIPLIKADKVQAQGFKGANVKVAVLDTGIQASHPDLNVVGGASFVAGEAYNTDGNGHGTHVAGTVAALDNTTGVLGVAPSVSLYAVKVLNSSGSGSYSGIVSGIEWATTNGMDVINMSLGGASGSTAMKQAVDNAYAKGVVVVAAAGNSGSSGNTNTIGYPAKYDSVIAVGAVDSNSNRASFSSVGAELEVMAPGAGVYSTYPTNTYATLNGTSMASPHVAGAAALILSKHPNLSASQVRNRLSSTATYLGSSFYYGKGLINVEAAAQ
Put plainly: Determination of Ki, inhibition of Alcalase. It is filed as biochemical. The text has this: (§1) c) Determination of Ki : The inhibition constant Ki may be determined by using standard methods, for reference see Keller et al, Biochem. Biophys. Res. Com. 176, 1991, pp.401-405; J. Bieth in Bayer-Symposium "Proteinase Inhibitors", pp. 463-469, Springer-Verlag, 1974 and Lone Kierstein Hansen in "Determination of Specific Activities of Selected Deterrent Proteases using Protease Activity, Molecular Weights, Kinetic Parameters and Inhibition Kinetics", PhD-report, Novo Nordisk A/S and University of Copenhagen, 1991.
(§2) The inhibition constant Ki for the inhibition of Alcalase and Savinase was determined using standard methods under the following conditions:
(§3) Substrate: Succinyl-Alanine-Alanine-Proline-Phenylalanine-paranitro-anilide=SAAPFpNA (Sigma S-7388).
(§4) Buffer: 0.1M Tris-HCl pH 8.6; 25° C.
(§5) Enzyme concentration in assay:
(§6) The initial rate of substrate hydrolysis was determined at nine substrate concentrations in the range of 0.01 to 2 mM using a Cobas Fara automated spectrophotometer. The kinetic parameters Vmax and Km were determined using ENZFITTER (a non-linear regression data analysis program). kcat was calculated from the equation Vmax =kcat ×[Eo ]. The concentration of active enzyme [Eo ] was determined by active site titration using tight-binding protein proteinase inhibitors. The inhibition constant Ki was calculated from plots of Km /kcat as a function of the concentration of inhibitor. The inhibitors were assumed to be 100% pure and the molar concentrations were determined using weighing numbers and molecular weights.

The target of a further assay is T2, Savinase (Lederbergia lenta, UniProt P29600).
T2 construct: purchased Novo Nordisk A/S
T2 sequence (P29600 1-269): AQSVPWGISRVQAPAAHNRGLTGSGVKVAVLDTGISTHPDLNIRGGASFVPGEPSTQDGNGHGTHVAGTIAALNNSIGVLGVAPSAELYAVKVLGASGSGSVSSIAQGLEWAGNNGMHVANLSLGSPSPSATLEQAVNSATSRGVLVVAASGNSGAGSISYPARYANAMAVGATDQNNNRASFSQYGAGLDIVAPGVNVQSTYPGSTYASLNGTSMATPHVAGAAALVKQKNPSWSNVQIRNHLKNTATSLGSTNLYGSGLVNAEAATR
Put plainly: Determination of Ki, inhibition of Savinase. The class given is biochemical, Bacillus.
Text: as §1, §2, §3, §4, §5, §6

In the next assay the test system is proteolytic enzymes. The settings on record: prior art; WO 92/19707 for acetamidobenzene boronic acid; cited from earlier work.
A further assay has as its system subtilisin. The settings on record: Keller et al, Biochem. Biophys. Res. Com. 176, 1991, pp. 401-405; cited from earlier work.
Setting [1] is: substrate SAAPFpNA, 0.1M Tris-HCl pH 8.6, 25° C., Alcalase 1×10^-10 - 3×10^-10 M, read-out: Ki Alcalase.
Where [2] appears, read: substrate SAAPFpNA, 0.1M Tris-HCl pH 8.6, 25° C., Savinase 1×10^-10 - 3×10^-10 M, read-out: Ki Savinase.

On to `OB(O)O` [Boric acid], for which the values for the Ki at Alcalase and on Savinase were 30000 µM and 20000 µM, respectively. For the same compound, the “inhibition of proteolytic enzymes” value in the assay on proteolytic enzymes is given as “reversibly inhibit proteolytic enzymes”.

With `OB(O)c1ccc2cc(O)ccc2c1` [6-hydroxynaphthalene-2-boronic acid], the Ki on Alcalase (setting [1]) is 500 µM; on Savinase (setting [2]), 600 µM. As to `OB(O)c1cc(Cl)cc(Cl)c1` [3,5-dichlorophenylboronic acid], the “capacity as subtilisin inhibitor” value with subtilisin is recorded as “particularly effective”.

For `OB(O)c1ccc2ccccc2c1` [Naphthalene-2-boronic acid, Naphthalene-2-Boronic Acid], the Ki amounted to 400 µM at Alcalase (setting [1]) and 300 µM at Savinase (setting [2]). For the compound `CB(O)O` [methylboronic acid], the “capacity as subtilisin inhibitor” value with subtilisin is on record as “poorest inhibitor”. For `OB(O)c1cccc2ccccc12` [Naphthalene-1-boronic acid, Naphthalene-1-Boronic Acid], the results for the inhibition constant Ki on Alcalase (setting [1]) and on Savinase (setting [2]) were 500 µM and 900 µM, respectively. Consider acetamidobenzene boronic acid, for which, in the assay with proteolytic enzymes, the “inhibition of proteolytic enzymes” value was “superior inhibitor of proteolytic enzymes”.
